This note sets out measurements from patent US20260256135A1, “SOLVENT COMPOSITION FOR AGROCHEMICAL FORMULATIONS” (SPECIALTY OPERATIONS FRANCE, priority 2023, published 2026).

The nature of this data set: Test 1: maximal solubility of an active (solo) in a solvent system, visual observation. The class given is physicochemical. As to conditions: active dissolved in the solvent system; limpid with the naked eye. From the text: The maximal solubility of an active or a combo of actives in a solvent system is characterized by visual observation. At a given concentration, if the mixture is limpid (with the naked eye), the active ingredient(s) is (are) considered to be soluble in the solvent system at this concentration. However, if a sedimentation of the active ingredient(s) appears, it is not soluble anymore in the solvent system and the maximal solubility is reached. The maximal solubility is thus defined as the maximum amount of active ingredient(s) that can be dissolved in the solvent system, equal to the amount at which the mixture remains limpid (with the naked eye). Each active ingredient or combo is added little by little in different solvent systems. The solutions are magnetically stirred until complete dissolution. Then an additional amount of active ingredient is added and this operation is repeated until the last part of active ingredient added could not be dissolved anymore, taking care to stir the solution after each addition of active ingredient.

Molecules are shown by their SMILES.

Regarding `COC(=O)C(C)CCC(=O)N(C)C` (stereo not drawn) [Rhodiasolv ® Polarclean, methyl-5-(dimethylamino)-2-methyl-5-oxopentanoate], the “maximal solubility of Difenoconazole” value is on record as 65.5 g/100 g of solvent, the “maximal solubility of Picoxystrobin” value was 43.9 g/100 g of solvent and the “maximal solubility of Pinoxaden” value is 13.0 g/100 g of solvent.
In the case of `CCCCOC(=O)CCC(C)=O` [GFbio ReSolv 200, n-butyl levulinate], the “maximal solubility of Difenoconazole” value is recorded as 44.5 g/100 g of solvent, the “maximal solubility of Picoxystrobin” value was 27.3 g/100 g of solvent and the “maximal solubility of Pinoxaden” value is recorded as 11.4 g/100 g of solvent.
